For one data set, the system named is cancer. The following applies: in vivo; cited from earlier work.
Another data set relates to tumors. Briefly: Intraoperative NIR imaging for fluorescence guided surgery (FGS) in tumor-bearing mice. It is filed as in vivo. Here is the method: FIG. 5 depicts intraoperative imaging of OCTL14 for fluorescence guided surgery (FGS). (a) FGS using the squaraine. Tumor-bearing mice were intravenously injected with 100 nmol of OCTL14. FGS was performed 6 h post-injection. The yellow circle indicates the lesions for which intraoperative image-guided surgeries were performed. The middle panels show the tumor locations before/after surgery and resected tumors of different sizes. Scale bars=1 cm. (b) Clinical impact of the use of OCTL14. The number of tumors detected using color images only was compared to those detected using NIR imaging by experienced surgeons.
Structure-inherent targeting: Squaraines are selectively taken up by cancer cells via organic cation transporters (OCTs), overexpressed by cancer cells (FIG. 4). This high affinity is mediated by the unique structure of the molecule. This was achieved this by introducing an asymmetric molecular conformation and surface charges. In this way, squaraines can be up-taken rapidly via transporter and selectively accumulate in cancer cells, not normal cells. In addition, we have shown that once they are taken up by cancer cells, squaraines can stay in lysosomes for hours for durable imaging. This feature is critical to have a clear contrast between cancerous and normal tissue for clear cancer imaging during surgery or medical procedures.

SMILES strings stand for the structures.

For the molecule `CC1(C)C(/C=C/C=C/C=C/C=C2\N(CCCCS(=O)(=O)O)c3ccc4ccccc4c3C2(C)C)=[N+](CCCCS(=O)(=O)[O-])c2ccc3ccccc3c21` [ICG, indocyanine green], in the data set on cancer, the blood half-life result is listed as “short blood half-life” and the cancer targeting capability entry is reported as “no specific cancer targeting capability”.

As to `Br.C[N+]1=C(/C=C2\C(=O)C(/C=C3/N(CCC[N+](C)(C)C)c4ccc(F)cc4C3(C)C)=C2[O-])C(C)(C)c2ccccc21.[I-]` [OCTL14, Mono ((Z)-2-((E)-(5-fluoro-3,3-dimethyl-1-(3-(trimethylammonio)propyl)indolin-2-ylidene)methyl)-3-oxo-4-((1,3,3-trimethyl-3H-indol-1-ium-2-yl)methylene)cyclobut-1-enolate) mono bromide monoiodide], the “localization of cancer tissues” value with tumors (6 h post-injection, 100 nmol intravenously, tumor-bearing mice) is on record as “precise localization of cancer tissues”. Further, in the data set with tumors (FGS 6 h post-injection), the “resection of tumors under image guidance” value is given as “complete resection of tumors” and the “residual tumor after FGS” value was “no residual tumor”.
